Reference: article PMC3745005 (Journal of biomolecular screening, 2012)

Biological target: PDE4A (catalytic domain of PDE4A10) (Homo sapiens, UniProt P27815)
Assay: enthalpy array nanocalorimetry, cAMP hydrolysis
Format: biochemical

Sequence of PDE4A (catalytic domain of PDE4A10) (P27815 351-683): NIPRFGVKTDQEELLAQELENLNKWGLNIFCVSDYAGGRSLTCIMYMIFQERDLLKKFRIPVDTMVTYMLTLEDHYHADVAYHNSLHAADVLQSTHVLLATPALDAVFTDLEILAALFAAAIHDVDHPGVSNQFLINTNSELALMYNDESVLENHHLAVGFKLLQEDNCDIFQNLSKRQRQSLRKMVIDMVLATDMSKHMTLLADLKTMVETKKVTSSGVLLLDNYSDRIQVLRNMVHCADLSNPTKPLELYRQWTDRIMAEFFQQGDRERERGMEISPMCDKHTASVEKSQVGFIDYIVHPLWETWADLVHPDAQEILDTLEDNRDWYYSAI

`CC(C)Cn1c(=O)n(C)c(=O)c2[nH]cnc21` [IBMX] showed a Ki of 8.3 ± 1.5 µM.
